# Values quoted from earlier work, collected in US20230321091A1, “SUBSTITUTED PYRIDAZINONES FOR USE IN THE TREATMENT OF NEUROMUSCULAR DISEASES” (Edgewise Therapeutics, Inc., priority 2020, published 2023).
# Test system: embryos from zebrafish model of DMD
smiles,measurement,value
"Cc1ccc(S(=O)(=O)NCc2ccccc2)cc1 [BTS, N-benzyl-p-tolyl-sulfonamide]",protection of muscles from pathological muscle derangement,protect muscles from pathological muscle derangement
